Results as given in patent publication EP0059554A2, “Beta-lactam antibiotics, a process for their preparation and their use in pharmaceutical compositions” (BEECHAM GROUP PLC, priority 1981, dated 1982).
Converted amounts (≈) assume the structure as drawn.

Experiments:
Assay in all cases: MIC in broth
Assay type in all cases: cell-based
[1] = system: Pseudomonas aeruginosa A [11]
Citrobacter freundii E8 = system: Citrobacter freundii E8
Streptococcus faecalia I = system: Streptococcus faecalia I
[2] = system: Staphylococcus aureus Russell [MB9]
[3] = system: Streptococcus pneumoniae CN33
[4] = system: Escherichia coli JT39 [E96]
Proteus rettgeri WM16 = conditions: Providencia rettgeri
Shigella sonnei MB11967 = system: Shigella sonnei MB11967
Bacillus subtilis A = system: Bacillus subtilis A
[5] = system: Proteus mirabilis 977 [13]
[6] = system: Klebsiella aerogenes A [T767]
[7] = system: Staphylococcus aureus Oxford
Proteus morganii 1580 = conditions: Morganella morganii
[8] = system: Enterobacter cloacae N1 [T753]
[9] = system: Streptococcus pyogenes CN10
Serratia marcescens US20 = system: Serratia marcescens US20
[10] = system: Salmonella typhimurium CT10; conditions: Salmonella enterica
Proteus vulgaris W091 = system: Proteus vulgaris W091
[11] = system: Staphylococcus aureus 1517
Escherichia coli ESS = system: Escherichia coli ESS
[12] = system: Escherichia coli 0111 [E8]

SMILES	MIC [1] [µg/mL]	MIC (Citrobacter freundii E8) [µg/mL]	MIC (Streptococcus faecalia I) [µg/mL]	MIC [2] [µg/mL]	MIC [4] [µg/mL]	MIC (Proteus rettgeri WM16) [µg/mL]	MIC (Shigella sonnei MB11967) [µg/mL]	MIC (Bacillus subtilis A) [µg/mL]	MIC [5] [µg/mL]	MIC [6] [µg/mL]	MIC [7] [µg/mL]	MIC (Proteus morganii 1580) [µg/mL]	MIC [8] [µg/mL]	MIC [9] [µg/mL]	MIC (Serratia marcescens US20) [µg/mL]	MIC [10] [µg/mL]	MIC (Proteus vulgaris W091) [µg/mL]	MIC [11] [µg/mL]	MIC (Escherichia coli ESS) [µg/mL]	MIC [12] [µg/mL]	other results
CC(=O)NCCSC1=C(C(=O)O)N2C(=O)[C@H]([C@@H](C)n3cc(C(=O)O)nn3)[C@H]2C1 [Example 4, Disodium (SR,6S) - 3 - (2 - acetamidoethylthio) - 6 - [(R) - 1 - (4 - carboxytriazol - 1 - yl)ethyl] - 7 - oxo - 1 - azabicyclo [3.2.0.]hept - 2 - ene - 2 - carboxylate.]	100	1.6	100	6.2	3.1	6.2	12.5	3.1	12.5	3.1	6.2	25	3.1	1.6	6.2	6.2	6.2	> 100	1.6	–	MIC [3]: 1.6 µg/mL
CC(=O)N/C=C/SC1=C(C(=O)O)N2C(=O)[C@H]([C@@H](C)n3cc(C(=O)O)nn3)[C@H]2C1 [Example 6, Disodium (5R,6S)-3-[(E)-2-acetamidoethenylthio]-6-[(R)-1-(4-carboxytriazol-1-yl)ethyl]-7-oxo-1-azabicyclo [3.2.0.] hept-2-ene-2-carboxylate]	50	25	100	6.2	3.1	3.1	3.1	6.2	12.5	1.6	6.2	12.5	25	–	6.2	1.6	12.5	25	1.6	12.5	–
CC(=O)N/C=C/SC1=C(C(=O)O)N2C(=O)[C@H]([C@@H](C)n3cc(C(=O)OCCN)nn3)[C@H]2C1 [Example 7, (5R,6S)-3-[(E)-2-acetamidoethenylthio]-6-[(R)-1-(4-(2-aminoethyloxycarbonyl)triazol-1-yl]ethyl]-7-oxo-1-azabicyclo[3.2.0.]hept-2-ene-2-carboxylic acid]	100 (≈ 222 µM)	0.8 (≈ 1.78 µM)	50 (≈ 111 µM)	0.4 (≈ 0.888 µM)	0.8 (≈ 1.78 µM)	6.2 (≈ 13.8 µM)	1.6 (≈ 3.55 µM)	0.8 (≈ 1.78 µM)	25 (≈ 55.5 µM)	3.1 (≈ 6.88 µM)	0.4 (≈ 0.888 µM)	–	1.6 (≈ 3.55 µM)	0.4 (≈ 0.888 µM)	3.1 (≈ 6.88 µM)	1.6 (≈ 3.55 µM)	25 (≈ 55.5 µM)	12.5 (≈ 27.7 µM)	–	1.6 (≈ 3.55 µM)	–
